Measured values reported in US12551494B2, “Pharmaceutical composition for preventing or treating dengue fever” (SEOUL NATIONAL UNIVERSITY R&DB FOUNDATION, priority 2021, dated 2026).
Where “and” joins values, the source holds several entries; their conditions need not be identical. Equal entries are not always repeated.

Tests used:
[1] = test system: DENV; assay: qRT-PCR analysis of viral RNA in DENV-infected Vero E6 cells; type: cell-based, dengue virus; settings: dose-dependent treatment
Method: (§1) Total RNA was extracted using Trizol (Invitrogen). The cDNA samples were prepared by reverse transcription using SuperScript II Reverse Transcriptase (Invitrogen). The synthesized cDNA samples were subjected to qRT-PCR with primers specific for each gene by using the PowerUp SYBR Green Master Mix (Applied Biosystems) and CFX Connect (Bio-Rad).
(§2) Standard assays were done to check the antiviral effect and cytotoxicity of ulipristal in vitro. The activity of ulipristal against DENV was evaluated by both FFA and qRT-PCR. For the FFA, Vero E6 cells were infected with DENV in the presence of various concentrations of ulipristal.
(§3) The anti-DENV activity was assessed by immunostaining with antibodies specific to the DENV E protein. […] The cytotoxicity of the compound in the Vero E6 cells was determined by the CCK-8 assay.

[2] = test system: Vero E6 cells; assay: Cell viability test (CCK-8 assay); type: cell-based
Method: The CCK-8 assay was performed according to the manufacturer's instructions. Vero E6, Huh7, and A549 cells were seeded in 96-well culture plates with 100 μL of complete media. After 24 h of incubation, the cells were treated with nanomaterials or drug in serially diluted concentrations for 48 h. The cells were rinsed with 1× PBS twice, and CCK-8 reagent was treated at a concentration of 10% (v/v) and incubated for 1 h. The optical density at 450 nm was measured by SynergyMx (Biotek) in the absorbance mode.

[3] = test system: DENV (KBPV-VR-29); assay: Murine DENV infection model (AG129 mice); type: in vivo
Method: AG129 mice (8-10 weeks old, female) were purchased from Marshall BioResources and housed under pathogen-free conditions. Animal research was approved by the Institutional Animal Care and Use Committee of Seoul National University and was performed according to the guidelines of the recommendations from the Association for Assessment and Accreditation of Laboratory Animal Care.
The murine DENV infection model was as described in previous study (Park, S. J., Kim, J., Kang, S., Cha, H. J., Shin, H., Park, J., Jang, Y. S., Woo, J. S., Won, C., Min, D. H., 2020. Sci Adv 6 (22), eaaz8201.). AG129 mice were exposed with a target dose of […] of the DENV by intraperitoneal injection. One hour after the challenge, the animals were treated with ulipristal. The compound was dissolved in sesame oil at a 10× concentration and further diluted in 1× PBS. Ulipristal was administered to the animals by intraperitoneal injection.
Animals in the vehicle control groups were administered a solution with no drug. The animals were monitored for weight, morbidity (ruffled fur, hunched posture, etc.), and survival daily for a total of 14 days after infection. Mice with a weight <80% of their initial body weight were humanely euthanized. At 3 days p.i., mice were sacrificed from each group. Blood and organ samples were collected. Blood was clarified by centrifugation, and viremia was determined by qRT-PCR. Organs were homogenized, and total RNA was extracted using Trizol. The relative DENV RNA level from each organ was determined by qRT-PCR.
Organ samples were fixed with 4% paraformaldehyde and embedded in paraffin. Paraffin sections were stained with H&E at the pathology core facility in the Center for Medical Innovation, Seoul National University Hospital, Korea.
The DENV strain we used (KBPV-VR-29) has been reported as a mouse-adapted virus strain. […] One hour after the infection, the animals were treated with ulipristal or vehicle over 14 days, and survival was monitored during that period.
Ulipristal was given at a dose of 15 mg/kg every day through intraperitoneal injection.

[4] = test system: DENV serotype 2; assay: Focus-forming assay (FFA) in Vero E6 cells; type: cell-based, dengue virus
Method: The virus was titrated by FFA in Vero E6 cells. Ten-fold serial diluted virus in DMEM supplemented with 2% FBS and P/S was added onto confluent Vero E6 cell monolayers attached to 96-well, black wall, optical bottom plates (Corning) and incubated for 1 h. After the incubation, the wells were overlaid with 100 μL of DMEM with 10% FBS, P/S, and methylcellulose and incubated for 2 days. Following the incubation, cell monolayers were fixed with 4% paraformaldehyde and then treated with blocking solution for 1 h. Samples were then treated with the anti-Dengue virus E protein antibody (GeneTex, GTX127277), followed by FITC-labeled goat anti-mouse IgG secondary antibody (Sigma-Aldrich, F0257).
as §2, §3

[5] = test system: DENV; assay: Time-of-addition assay in A549 cells; type: cell-based, dengue virus; settings: 48 h p.i.
Method: A549 cells were seeded onto 24-well plates. After incubation overnight, cells were treated with ulipristal at the various time points and inoculated with DENV. At 48 h p.i., the cells were washed with 1× PBS and processed for qRT-PCR.
A549 cells were treated with ulipristal in three different conditions: treatment before the infection (pre-treatment), treatment along with the infection (co-treatment), and treatment after the infection (post-treatment) (FIG. 14A). […] Furthermore, the degree of inhibitory effect was decreased as the ulipristal administration was delayed (FIG. 14B).

[6] = test system: DENV; assay: DENV infection in Huh7 cells (qRT-PCR of viral RNA, E protein immunostaining); type: cell-based, dengue virus
Method: as §1
(§4) We further validated the antiviral activity of ulipristal using Huh7 (liver carcinoma cell line) and A549 (lung carcinoma cell line) cell lines as hosts for the DENV infection. Both cell monolayers were analyzed with qRT-PCR to observe the relative DENV RNA level. […] Moreover, the fluorescence signal of the viral E protein from immunostaining also was reduced by the ulipristal treatment (FIG. 11C).

[7] = test system: DENV; assay: DENV infection in A549 cells (qRT-PCR of viral RNA, E protein immunostaining); type: cell-based, dengue virus
Method: as §1, §4

[8] = test system: DENV serotype 2; assay: GOViRA (graphene oxide-based viral RNA analysis) fluorescence antiviral assay / drug library screening in Vero E6 cells; type: cell-based, dengue virus
Method: Vero E6 cells were seeded onto 96-well, black wall, optical bottom plates at a density of 1.5×10^4 cells per well and incubated with DMEM supplemented with 10% FBS and P/S. After overnight incubation, the cells were briefly washed with 1× PBS and infected with DENV. Next, 20 pmol vPNA or β-actin PNA probe was mixed with 1.2 μg DRGON solution for 10 min at RT. The Vero E6 cells were treated with the PNA-DRGON complexes for 5 h. The plates were incubated for up to 72 h, and cell nuclei were counterstained with Hoechst 33342. Fluorescent images were obtained by the IN Cell Analyzer 2000 (GE Healthcare) and DeltaVision Elite (GE Healthcare) imaging system. The quantification of data was processed with the IN Cell Developer software (https://cyvitalifesciences.com).
For the drug library screening experiments, 1.5×10^4 Vero E6 cells in a total volume of 100 μL per well were seeded onto 96-well, black wall, optical bottom plates using DMEM media supplemented with 10% FBS and P/S and incubated overnight. Next, the cells were pretreated with 50 μL of experimental compounds or vehicle in DMEM supplemented with 2% FBS and P/S and incubated 1 h at 37° C. Next, 50 μL of DENV (a final MOI of 0.5) were added to each well, resulting in a 10 μM final concentration for each compound and cells were incubated for 48 h.
Infection was stopped by rinsing each well with 1× PBS, and the infected cells were treated with the PNA-DRGON complexes for 5 h at 37° C. and then briefly washed with 1× PBS. Fluorescent images were obtained by the IN Cell Analyzer 2000, and quantification of the data was processed using the IN Cell Developer software.
To determine its systemic reliability as a high-throughput screening assay, we used Z′-factor as a statistical parameter. […] To further verify whether the GOViRA system is capable of the quantitative analysis of antiviral activity, we utilized the system to investigate the cellular effect caused by a model representative antiviral compound, Ribavirin. […]

[9] = test system: PR; assay: qRT-PCR analysis of PR expression in A549 cells; type: cell-based; settings: 24 h of incubation
Method: as §1
A time-of-addition experiment was performed to determine which time point of the viral infection stage is affected by the administration of ulipristal. Because ulipristal is widely known as an SPRM compound, we chose a cell line without PR expression to exclude the influence of PR signaling on the time-of-addition experiment. […] After 24 h of incubation, the RNA expression level of each group was analyzed. There was no PR expression in the NT group (FIG. 13). […] Therefore, we examined the mode of action of ulipristal using the A549 cell line.

[10] = 15 mg/kg every day i.p., day 3 p.i.

For CC(=O)[C@@]1(O)CC[C@H]2[C@@H]3CCC4=CC(=O)CCC4=C3[C@@H](c3ccc(N(C)C)cc3)C[C@@]21C [ulipristal], the “relative expression level of viral RNA (qRT-PCR)” value [1] was “active against DENV”, the “cell viability in drug library screening” value ([2]; 10 μM) was “minimal effects on cell viability” and the “cytotoxicity / cell viability (CCK-8)” value ([2]; 48 h) was “no impact on cell viability”. For the same compound, the “spleen histology (H&E), white-pulp/red-pulp boundary loss” value ([3]; 15 mg/kg every day i.p.) was “boundary loss was decreased”, the “viral RNA load in organs (spleen, lung, liver, large intestine)” value [3, 10] was “significantly decreased” and the “viral RNA load in the small intestine, difference vs vehicle” value [3, 10] was “not statistically significant”. The “viremia in the blood (qRT-PCR)” value ([3]; 15 mg/kg every day i.p., day 3 p.i., vs control group) was “significantly reduced viremia”, the “liver histology (H&E): nuclear pleomorphism of hepatocytes, dilatation of sinusoids, focal necrosis” value ([3]; 15 mg/kg every day i.p., vs control group) was “significant reduction of such symptoms” and the survival ([3]; 15 mg/kg every day, intraperitoneal, 14 days, log-rank test) was “statistically significant survival benefit (P=0.0007)”. The “relative body weight change and disease symptoms” value ([3]; 15 mg/kg every day, intraperitoneal, DENV 1×107 FFU i.p., 14 days) was “Compared to the ulipristal-treated group, the control group exhibited a huge weight loss”, the EC50 ([4]; DENV serotype 2, read-out: half-effective concentration (EC50), anti-DENV activity by FFA) was 8.3 µM and 8.28 µM and the “number of foci (FFA, DENV E protein immunostaining)” value ([4]; various concentrations) was “number of foci decreased in a dose-dependent manner”. For the same compound, the “intracellular viral RNA level, antiviral effect” value (“intracellular viral RNA level” below) ([5]; co-treatment (along with the infection)) was “antiviral effect by the administration of the drug was observed”, the “intracellular viral RNA level” value ([5]; post-treatment (after the virus inoculation)) was “less inhibitory effect” and the “intracellular viral RNA level” value ([5]; pre-treatment (before the infection)) was “antiviral effect by the administration of the drug was observed”. For the same compound, the “fluorescence signal of viral E protein (immunostaining)” value [6] was “reduced”, the “relative DENV RNA level (qRT-PCR)” value [6] was “inhibited the DENV infection in both cell lines dose-dependently” and the “fluorescence signal of viral E protein (immunostaining)” value [7] was “reduced”. For the same compound, the “relative DENV RNA level (qRT-PCR)” value [7] was “inhibited the DENV infection in both cell lines dose-dependently”, the “fluorescence signal decrease in drug library screening” value ([8]; 10 μM, Vero E6 cells, pretreated 1 h, MOI 0.5, 48 h) was under 25% and the “levels of PR expression (qRT-PCR)” value [9] was “did not influence the levels of PR expression”.
In the case of NC(=O)c1ncn([C@@H]2O[C@H](CO)[C@@H](O)[C@H]2O)n1 [ribavirin, Ribavirin], the “fluorescence signal (GOViRA), dose response” value ([8]; DENV-infected Vero E6 cells) is reported as “serial decrease in the fluorescence signal dose-dependently” and the EC50 ([8]; Dengue virus, Vero C1008, DENV-infected Vero E6 cells, concentrations 6.25 μM to 400 μM, PNA-DRGON complex after 48 hours, read-out: EC50 value for DENV serotype 2 (GOViRA system)) is reported as 49.2 ± 0.2 µM.
